≈ marks a conversion by molar mass, not a printed value.
Legend:
horse red blood cells = assay: Hemolytic activity assay
Protocol: 2.3.3 Hemolytic activity assay
The hemolytic properties of tested compound were evaluated according to previously reported procedure.6 Defibrinated horse red blood cells purchased from Thermo Fisher Scientific (Germany) were washed with PBS (3000 rpm, 10 min at 4 °C) for three times followed by PBS dilution to obtain a 8% suspension. Then, 100 μL of the resulting suspensions […]
were treated with 100 μL of tested compound at the final concentration of 200 μM, and incubated at 37 °C for 1 h. Triton X-100 (2%) and PBS were used as positive and negative controls, respectively. After centrifugation at 3000 rpm for 3 min, 100 μL of the supernatants were transferred to a 96 well microtiter plate and the hemoglobin release was determined in a SpectraMax iD3 reader (Molecular Devices) by absorption at 540 nm. […]

BJ cells = assay: Cytotoxicity, MTT assay, skin fibroblasts; format: cell-based, human; conditions: Homo sapiens, MTT, 24 h, n = 3
Protocol: The following cell models were used in the research: rat cardiomyocytes (H9c2 line) and human skin fibroblasts (BJ line). All cell lines used in the work are commercially available and were purchased from ATCC banks (the American Type Culture Collection, Manassas, VI, USA). Cell cultures were carried out in an incubator under standard conditions (37°C, 5% CO 2).
Culture media (Dulbecco's Modified Eagle's Medium -DMEM (H9c2) and Eagle's Minimum Essential Medium-EMEM (BJ) were supplemented with 10% bovine serum and a 1% mixture of penicillin and streptomycin antibiotics. […]
doxorubicin (a cytotoxic drug) were used as reference and positive control, respectively. […]
solution (5 mg/mL) was transferred into culture medium of incubated cells. After 3 h, once dark crystals of formazan were produced in cells, medium was aspirated and 100 μ L of DMSO was added to dissolve formazan. Absorbance of DMSO solution was read on a multiwell plate reader (Spectra Max iD3, Molecular Devices) at 570 nm. In order to determine viability, absorbance of experimental wells was divided by absorbance of contro l well (not treated) and multiplied by 100 (%). Three separate experiments were performed. IC 50 was calculated using non-linear regression method in OriginPro software. […]

[1] = tested on: biofilm-producing Staphylococcus epidermidis strains; assay: Inhibition of biofilm formation (MBIC, resazurin); format: cell-based
Protocol: After 24 hours incubation each well of
concentration of 4 mg/mL was added. […]

[2] = tested on: biofilm-producing Staphylococcus epidermidis strains; assay: Biofilm eradication (MBEC Assay Kit); format: cell-based
[3] = S. epidermidis ATCC 35984 (Table S4)

SMILES: O=S(=O)(NC1CCN(CCC(Oc2ccc(C(F)(F)F)cc2)c2cccs2)CC1)c1cccc(Cl)c1 (stereo not drawn) [Compound 14]
- %hem (hemolytic activity) (horse red blood cells; 200 μM, 1 h, n = 3): 0.27%
- lysis of erythrocytes (horse red blood cells; concentrations up to 200 μM): None of them caused lysis of erythrocytes
- IC50 (BJ cells): 9.9 µg/mL (≈ 17.7 µM)
- MBIC [1, 3]: 31.25 µg/mL
- MBIC50 ([1]; Table S4 strains): 125 µg/mL
- MBIC ([1]; clinical strain 1 (Table S4)): 31.25 µg/mL
- MBIC ([1]; clinical strain 2 (Table S4)): 125 µg/mL
- MBIC ([1]; clinical strain 3 (Table S4)): 125 µg/mL
- MBIC ([1]; clinical strain 4 (Table S4)): 125 µg/mL
- MBIC ([1]; clinical strain 5 (Table S4)): 62.5 µg/mL
- MBIC ([1]; clinical strain 6 (Table S4)): 125 µg/mL
- MBIC ([1]; clinical strain 7 (Table S4)): 125 µg/mL
- MBIC ([1]; clinical strain 8 (Table S4)): 15.6 µg/mL
- MBIC ([1]; clinical strain 9 (Table S4)): 125 µg/mL
- MBIC ([1]; clinical strain 11 (Table S4)): 125 µg/mL
- MBIC ([1]; clinical strain 12 (Table S4)): 125 µg/mL
- MBIC ([1]; clinical strain 13 (Table S4)): 62.5 µg/mL
- MBIC ([1]; clinical strain 15 (Table S4)): 125 µg/mL
- MBIC ([1]; clinical strain 16 (Table S4)): 31.25 µg/mL
- MBIC ([1]; clinical strain 17 (Table S4)): 62.5 µg/mL
- MBIC ([1]; clinical strain 19 (Table S4)): 31.25 µg/mL
- MBIC ([1]; clinical strain 21 (Table S4)): 125 µg/mL
- MBIC ([1]; clinical strain 22 (Table S4)): 125 µg/mL
- MBIC ([1]; clinical strain 23 (Table S4)): 7.8 µg/mL
- MBIC ([1]; clinical strain 25 (Table S4, Figure 2)): 31.25 µg/mL
- MBIC ([1]; clinical strain 26 (Table S4)): 125 µg/mL
- MBIC ([1]; clinical strain 27 (Table S4)): 250 µg/mL
- MBIC ([1]; clinical strain 28 (Table S4)): 62.5 µg/mL
- MBIC ([1]; clinical strain 29 (Table S4)): 62.5 µg/mL
- MBIC ([1]; clinical strain 30 (Table S4)): 62.5 µg/mL
- MBIC ([1]; clinical strain 33 (Table S4)): 125 µg/mL
- MBIC ([1]; clinical strain 35 (Table S4)): 125 µg/mL
- MBIC ([1]; clinical strain 36 (Table S4)): 62.5 µg/mL
- MBIC ([1]; clinical strain 37 (Table S4)): 125 µg/mL
- MBIC ([1]; clinical strain 39 (Table S4)): 15.6 µg/mL
- MBIC ([1]; clinical strain 40 (Table S4)): 31.25 µg/mL
- MBIC ([1]; clinical strain 41 (Table S4)): 125 µg/mL
- MBIC ([1]; clinical strain 42 (Table S4)): 125 µg/mL
- MBIC ([1]; clinical strain 43 (Table S4)): 250 µg/mL
- MBIC ([1]; clinical strain 44 (Table S4)): 62.5 µg/mL
- MBIC ([1]; clinical strain 45 (Table S4)): 125 µg/mL
- MBIC ([1]; clinical strain 46 (Table S4)): 125 µg/mL
- MBIC ([1]; clinical strain 47 (Table S4)): 62.5 µg/mL
- MBIC ([1]; clinical strain 49 (Table S4)): 31.25 µg/mL
- MBIC ([1]; clinical strain 51 (Table S4)): 125 µg/mL
- MBIC ([1]; clinical strain 55 (Table S4)): 125 µg/mL
- MBIC ([1]; clinical strain 58 (Table S4)): 125 µg/mL
- MBIC ([1]; clinical strain 59 (Table S4)): 125 µg/mL
- MBIC ([1]; clinical strain 65 (Table S4)): 125 µg/mL
- MBIC ([1]; clinical strain 66 (Table S4)): 125 µg/mL
- MBIC ([1]; clinical strain 67 (Table S4)): 125 µg/mL
- MBIC ([1]; clinical strain 70 (Table S4)): 125 µg/mL
- MBIC ([1]; clinical strain 73 (Table S4)): 31.25 µg/mL
- MBIC ([1]; clinical strain 74 (Table S4)): 125 µg/mL
- MBIC ([1]; clinical strain 75 (Table S4)): 31.25 µg/mL
- MBIC ([1]; clinical strain 78 (Table S4)): 15.6 µg/mL
- MBIC ([1]; clinical strain 79 (Table S4)): 31.25 µg/mL
- MBEC [2, 3]: 31.25 µg/mL
- MBEC50 ([2]; Table S4 strains): 125 µg/mL
- MBEC ([2]; clinical strain 1 (Table S4)): 125 µg/mL
- MBEC ([2]; clinical strain 2 (Table S4)): 125 µg/mL
- MBEC ([2]; clinical strain 3 (Table S4)): 250 µg/mL
- MBEC ([2]; clinical strain 4 (Table S4)): 125 µg/mL
- MBEC ([2]; clinical strain 5 (Table S4)): 125 µg/mL
- MBEC ([2]; clinical strain 6 (Table S4)): 125 µg/mL
- MBEC ([2]; clinical strain 7 (Table S4)): 125 µg/mL
- MBEC ([2]; clinical strain 8 (Table S4)): 31.25 µg/mL
- MBEC ([2]; clinical strain 9 (Table S4)): 250 µg/mL
- MBEC ([2]; clinical strain 11 (Table S4)): 250 µg/mL
- MBEC ([2]; clinical strain 12 (Table S4)): 125 µg/mL
- MBEC ([2]; clinical strain 13 (Table S4)): 62.5 µg/mL
- MBEC ([2]; clinical strain 15 (Table S4)): 125 µg/mL
- MBEC ([2]; clinical strain 16 (Table S4)): 62.5 µg/mL
- MBEC ([2]; clinical strain 17 (Table S4)): 62.5 µg/mL
- MBEC ([2]; clinical strain 19 (Table S4)): 31.25 µg/mL
- MBEC ([2]; clinical strain 21 (Table S4)): 125 µg/mL
- MBEC ([2]; clinical strain 22 (Table S4)): 125 µg/mL
- MBEC ([2]; clinical strain 23 (Table S4)): 15.6 µg/mL
- MBEC ([2]; clinical strain 25 (Table S4)): 31.25 µg/mL
- MBEC ([2]; clinical strain 26 (Table S4)): 250 µg/mL
- MBEC ([2]; clinical strain 27 (Table S4)): 250 µg/mL
- MBEC ([2]; clinical strain 28 (Table S4)): 125 µg/mL
- MBEC ([2]; clinical strain 29 (Table S4)): 125 µg/mL
- MBEC ([2]; clinical strain 30 (Table S4)): 125 µg/mL
- MBEC ([2]; clinical strain 33 (Table S4)): 125 µg/mL
- MBEC ([2]; clinical strain 35 (Table S4)): 125 µg/mL
- MBEC ([2]; clinical strain 36 (Table S4)): 125 µg/mL
- MBEC ([2]; clinical strain 37 (Table S4)): 125 µg/mL
- MBEC ([2]; clinical strain 39 (Table S4)): 31.25 µg/mL
- MBEC ([2]; clinical strain 40 (Table S4)): 125 µg/mL
- MBEC ([2]; clinical strain 41 (Table S4)): 125 µg/mL
- MBEC ([2]; clinical strain 42 (Table S4)): 125 µg/mL
- MBEC ([2]; clinical strain 43 (Table S4)): 250 µg/mL
- MBEC ([2]; clinical strain 44 (Table S4)): 62.5 µg/mL
- MBEC ([2]; clinical strain 45 (Table S4)): 125 µg/mL
- MBEC ([2]; clinical strain 46 (Table S4)): 125 µg/mL
- MBEC ([2]; clinical strain 47 (Table S4)): 62.5 µg/mL
- MBEC ([2]; clinical strain 49 (Table S4)): 31.25 µg/mL
- MBEC ([2]; clinical strain 51 (Table S4)): 125 µg/mL
- MBEC ([2]; clinical strain 55 (Table S4)): 125 µg/mL
- MBEC ([2]; clinical strain 58 (Table S4)): 125 µg/mL
- MBEC ([2]; clinical strain 59 (Table S4)): 125 µg/mL
- MBEC ([2]; clinical strain 65 (Table S4)): 125 µg/mL
- MBEC ([2]; clinical strain 66 (Table S4)): 125 µg/mL
- MBEC ([2]; clinical strain 67 (Table S4)): 125 µg/mL
- MBEC ([2]; clinical strain 70 (Table S4)): 250 µg/mL
- MBEC ([2]; clinical strain 73 (Table S4)): 31.25 µg/mL
- MBEC ([2]; clinical strain 74 (Table S4)): 125 µg/mL
- MBEC ([2]; clinical strain 75 (Table S4)): 31.25 µg/mL
- MBEC ([2]; clinical strain 78 (Table S4)): 31.25 µg/mL
- MBEC ([2]; clinical strain 79 (Table S4)): 31.25 µg/mL
